The source of these data is patent publication US12263155B2, “Combinations of monoamine oxidase inhibitors and serotonin receptor agonists and their therapeutic use” (Remedi, Inc., priority 2022, dated 2025).

By IC50 is commonly meant the midpoint of a concentration-inhibition curve. Higher therefore signals lower potency. A word on the Ki: it is a measure of affinity in units of concentration, obtained from inhibition or displacement. Read a low Ki as a stronger hold on the target.

For series [1], the target named is T1, rat brain MAO-A (Rattus norvegicus, UniProt P21396).
T1 construct: prepared from brain homogenates of male Sprague-Dawley rats, served as the source of MAO-A enzymatic activity; from tissue
T1 sequence (P21396 1-526): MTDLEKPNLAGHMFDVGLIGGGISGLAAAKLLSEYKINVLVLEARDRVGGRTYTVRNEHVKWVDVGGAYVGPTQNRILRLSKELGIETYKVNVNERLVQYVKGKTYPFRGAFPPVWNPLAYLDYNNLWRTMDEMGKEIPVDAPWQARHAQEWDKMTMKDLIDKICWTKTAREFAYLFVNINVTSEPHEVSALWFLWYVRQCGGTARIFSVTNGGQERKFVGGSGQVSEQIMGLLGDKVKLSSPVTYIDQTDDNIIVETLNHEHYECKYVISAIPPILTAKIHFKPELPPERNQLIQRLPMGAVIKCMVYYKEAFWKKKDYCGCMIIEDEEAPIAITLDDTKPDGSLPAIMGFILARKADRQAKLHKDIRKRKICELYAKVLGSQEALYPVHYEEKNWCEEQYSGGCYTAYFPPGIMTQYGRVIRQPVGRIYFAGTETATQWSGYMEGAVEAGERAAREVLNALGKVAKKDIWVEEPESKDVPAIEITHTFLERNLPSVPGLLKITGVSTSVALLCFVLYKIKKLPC
The experiment in a line: In vitro inhibition of rat brain MAO-A. It is filed as biochemical. As to the method:
Methods: The soluble extract of the mitochondrial enriched fraction (P2 pellet), which was prepared from brain homogenates of male Sprague-Dawley rats, served as the source of MAO-A enzymatic activity. The P2 fraction was prepared and was stored frozen until being thawed for use on the day of assay. Final concentrations of 50 μM [^14C]-serotonin (5-HT) and 10 μM [^14C]-phenylethylamine (PEA) were employed as specific substrates for MAO-A and MAO-B, respectively. Test compound inhibition was based on competition for oxidation of these radio-labeled substrates. MAO-A assay specificity was enhanced by inclusion of 0.1 μM deprenyl to prevent substrate oxidation by MAO-B. Likewise, MAO-B assays included 0.1 μM clorgyline to block MAO-A activity. […] Inhibition of enzymatic activities was expressed as IC50 and as the Ki, which was calculated using the Cheng-Prusoff equation.

Series [2] has as its system 69 binding sites in nine classes. The experiment in a line: NovaScreen ligand-binding screen, other binding sites. The conditions noted are these: 10.0 nM and 100 nM. As to the method: Methods: Investigational drug candidates CX157 were analyzed in NovaScreen's bank of ligand-binding reactions to test for specificity. CX157 was screened at concentrations of both 10.0 nM and 100 nM as potential competitors in binding reactions involving nine classes containing 69 binding sites. The following binding reactions are tested: Adenosine Non-selective, Adrenergic Alpha 1 Non-selective, Adrenergic Alpha 2 Non-selective, Adrenergic Beta Non-selective, Dopamine Transporter, Dopamine Non-selective, GABA A Agonist Site, GABA A BDZ alpha 1 site, GABA B, Glutamate AMPA Site (Ionotropic), Glutamate Kainate Site (Ionotropic), Glutamate NMDA Agonist Site (Ionotropic), Glutamate NMDA Glycine (Stry-insens Site) (Ionotrophic), Glycine Strychnine-sensitive, Histamine H1, Histamine H2, Histamine H3, Melatonin Non-selective, Muscarinic M1 (hr), Muscarinic M2 (hr), Muscarinic Non-selective Central, Muscarinic Non-selective Peripheral, Nicotinic (α-BnTx insensitive) Neuronal, Norepinephrine Transporter, Opioid Non-selective, Orphanin (hr), Serotonin Transporter, Serotonin Non-selective, Sigma Non-selective, Estrogen, Testosterone (cytosolic), Calcium Channel Type L (Dihydropyridine Site), Calcium Channel Type N, Potassium Channel ATP-Sensitive, Potassium Channel Ca2+ Act. VI, Potassium Channel I[Kr]

The procedure of series [3]: Methods: The trial was a Phase 1, single center, double-blind, placebo-controlled, sequential group, acute dose escalation study of the safety and pharmacokinetics of seven (7) CX157 dose levels in healthy male volunteers. Each of the seven (7) dose groups consisted of six (6) subjects, with the exception of cohort 2 (CX157 10 mg or placebo) which enrolled only five (5) subjects. Within each dose group, four (4) subjects were randomized to CX157 and two (2) subjects to placebo. Subjects were normal healthy volunteers confined to the study center for approximately 4 days, beginning approximately 16 hours before exposure to study drug and ending approximately 48 hours after exposure to study drug. Safety and tolerability was assessed for each dose group by the Principal Investigator before advancing to the next scheduled dose group. CX157 was administered as a fully solubilized microemulsion in Labrasol™

The conditions of series [4]: 10, 20 and 40 mg twice daily for 14 days, healthy volunteers. As to the method:
Methods: The study was a Phase I, single-center, randomized, parallel-group, multiple-dose, placebo-controlled, pharmacodynamic, pharmacokinetic and safety study in healthy volunteers. To obtain 24 enrolled subjects, screening procedures and inclusion/exclusion criteria were evaluated for 54 subjects during a variable screening period of up to 28 days. Once enrolled, subjects were randomized to either CX157 10 mg, 20 mg or 40 mg or matching placebo administered twice daily for 14 consecutive days.

Series [5] concerns the target T2, MAO-A (Homo sapiens, UniProt P21397).
T2 sequence (P21397 1-527): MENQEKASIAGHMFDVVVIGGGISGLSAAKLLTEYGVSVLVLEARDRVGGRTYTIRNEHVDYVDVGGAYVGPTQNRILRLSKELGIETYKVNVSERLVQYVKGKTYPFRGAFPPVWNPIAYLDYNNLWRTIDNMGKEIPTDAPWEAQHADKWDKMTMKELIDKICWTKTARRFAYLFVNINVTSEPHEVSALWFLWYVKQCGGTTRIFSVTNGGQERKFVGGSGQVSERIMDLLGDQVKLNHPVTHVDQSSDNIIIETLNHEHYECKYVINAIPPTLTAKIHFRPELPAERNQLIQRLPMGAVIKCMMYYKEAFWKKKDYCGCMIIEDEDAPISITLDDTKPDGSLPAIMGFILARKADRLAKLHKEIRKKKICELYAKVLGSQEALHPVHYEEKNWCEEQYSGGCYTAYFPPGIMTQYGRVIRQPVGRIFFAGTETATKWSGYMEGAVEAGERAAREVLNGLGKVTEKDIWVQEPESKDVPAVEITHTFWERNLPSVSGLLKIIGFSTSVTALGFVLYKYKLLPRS
The settings on record: cited from earlier work.

The structures appear in SMILES notation. Like-named read-outs stand apart in the source and are kept apart here. A value given as a limit tells only on which side of the number the result lay.

Regarding `O=S1(=O)c2ccc(F)cc2Oc2cc(OCC(F)(F)F)ccc21` [CX157, 3-fluoro-7(2,2,2-trifluorethoxy)phenoxathiine-10,10-dioxide], the “Ki for CX157/Ki for RO-41-1049” value in series [1] (Brain MAO-A) stood at 0.006. Moreover, the “Ki fold lower than reference compound RO 41-1049” value in series [1] (rat brain MAO-A) is given as greater than 10 fold. The IC50 in series [1] (rat brain P2 extract, 50 μM [14C]-5-HT) was determined as 0.09 nM. In series [1] (rat brain, Cheng-Prusoff), this molecule gave an inhibition constant (Ki) of 0.09 nM. In series [2], the “interactions with other binding sites in the screen” value is listed as “no interactions”. The “percent of subjects experiencing adverse events” value in series [3] (all CX157 groups, single doses) amounted to 89%. In addition, the safety and tolerability result is “safe and well tolerated” in series [3] (healthy volunteers, single dose escalation); “generally safe and well tolerated” in series [4]. Besides, in series [5], the “potency for MAO-A inhibition relative to moclobemide” value is on record as “more than 100 times”.
